“And” between values parts separate entries of the source, which are not always exact repeats. Equal values may be shown once. Toxic doses and inconclusive results are not listed. The calls were made as follows: active = survival T/C of 150% or more; inactive = T/C below 125% in these data.
System: P388 leukemia ip, CD2F1 mice, survival T/C
Experiment: NCI In Vivo Anticancer Drug Screen. Data for tumor model P388 Leukemia (intraperitoneal) in CD2F1 (CDF1) mice
Settings: endpoint: median survival time, higher = longer survival
Summary of the method: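 Mice carrying the transplanted tumor received test compound or vehicle. Survival was recorded in each group, and the value is the treated-group measurement divided by that of the vehicle-treated control group.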

[1] = dose: 50.0 mg/kg/injection, schedule: Q01DX005 (ip), vehicle: Klucel (hydroxypropylcellulose) (HPC)
[2] = dose: 100.0 mg/kg/injection, schedule: Q01DX005 (ip), vehicle: Klucel (hydroxypropylcellulose) (HPC)
[3] = dose: 200.0 mg/kg/injection, schedule: Q01DX005 (ip), vehicle: Klucel (hydroxypropylcellulose) (HPC)
[4] = dose: 1.56 mg/kg/injection, schedule: Q01DX009 (ip), vehicle: saline

Measured: T/C

O=S(=O)(O)c1ccc(Cl)c(N=N/C=N/Nc2cc(S(=O)(=O)O)ccc2Cl)c1
inactive: [1] 100 % of control | [2] 98 % of control | [3] 100 % of control

C/C(=C\CC1C(=O)N(c2ccccc2)N(c2ccccc2)C1=O)CO
inactive: dose: 60.0 mg/kg/injection, schedule: Q01DX005 (ip), vehicle: Klucel (hydroxypropylcellulose) (HPC) 100 % of control | dose: 120.0 mg/kg/injection, schedule: Q01DX005 (ip), vehicle: Klucel (hydroxypropylcellulose) (HPC) 100 % of control | dose: 240.0 mg/kg/injection, schedule: Q01DX005 (ip), vehicle: Klucel (hydroxypropylcellulose) (HPC) 91 % of control

CC1S(=O)(=O)O[Si](C)(C)CC[Si](C)(C)OS1(=O)=O
inactive: [1] 105 % of control | [2] 100 % of control | [3] 102 % of control

Cn1ncc(=O)[nH]c1=O
inactive: [1] 103 % of control | [2] 98 % of control | [3] 103 % of control

CC1(CO)COC(c2ccc(Cl)cc2)N1 (stereo not drawn)
inactive: dose: 50.0 mg/kg/injection, schedule: Q01DX005 (ip), vehicle: acetone 106 % of control | dose: 100.0 mg/kg/injection, schedule: Q01DX005 (ip), vehicle: acetone 106 % of control | dose: 200.0 mg/kg/injection, schedule: Q01DX005 (ip), vehicle: acetone 112 % of control

C=C1[C@@H](OC(C)=O)C[C@@H]2C[C@]3(C)C(OC(C)=O)CC(C)(C)[C@@H]3C12O (stereo partly drawn)
inactive: dose: 1.75 mg/kg/injection, schedule: Q01DX005 (ip), vehicle: saline 98 % of control | dose: 3.5 mg/kg/injection, schedule: Q01DX005 (ip), vehicle: saline 100 % of control | dose: 7.0 mg/kg/injection, schedule: Q01DX005 (ip), vehicle: saline 97 % of control

Cc1c(-c2ccccc2)ccnc1/C=N/NC(=S)Nc1ccccc1
inactive: [4] 89 % of control | dose: 3.12 mg/kg/injection, schedule: Q01DX009 (ip), vehicle: saline 92 % of control | dose: 6.25 mg/kg/injection, schedule: Q01DX009 (ip), vehicle: saline 88 % of control and 95 % of control | dose: 25.0 mg/kg/injection, schedule: Q01DX009 (ip), vehicle: saline with Tween-80 89 % of control | dose: 50.0 mg/kg/injection, schedule: Q01DX009 (ip), vehicle: saline with Tween-80 89 % of control | dose: 50.0 mg/kg/injection, schedule: Q01DX009 (ip), vehicle: saline 86 % of control

COc1ccccc1C1OCC(C)(C)N1C (stereo not drawn)
inactive: dose: 18.75 mg/kg/injection, schedule: Q01DX001 (ip), vehicle: saline sonified 100 % of control | dose: 37.5 mg/kg/injection, schedule: Q01DX001 (ip), vehicle: saline sonified 95 % of control | dose: 75.0 mg/kg/injection, schedule: Q01DX001 (ip), vehicle: saline sonified 110 % of control | dose: 75.0 mg/kg/injection, schedule: Q04DX003 (ip), vehicle: saline with Tween-80 105 % of control | dose: 150.0 mg/kg/injection, schedule: Q04DX003 (ip), vehicle: saline with Tween-80 105 % of control | dose: 300.0 mg/kg/injection, schedule: Q04DX003 (ip), vehicle: saline with Tween-80 100 % of control

C1CCC2[N-]CC3CCCCC3[N-]CC3CCCCC3[N-]CC3CCCCC3[N-]CC2C1.[Cu] (stereo not drawn)
inactive: dose: 0.39 mg/kg/injection, schedule: Q01DX009 (ip), vehicle: saline 105 % of control | dose: 0.78 mg/kg/injection, schedule: Q01DX009 (ip), vehicle: Klucel (hydroxypropylcellulose) (HPC) 121 % of control | dose: 0.78 mg/kg/injection, schedule: Q01DX009 (ip), vehicle: saline 123 % of control | [4] 123 % of control | dose: 1.56 mg/kg/injection, schedule: Q01DX009 (oral), vehicle: Klucel (hydroxypropylcellulose) (HPC) 89 % of control | dose: 3.12 mg/kg/injection, schedule: Q01DX009 (oral), vehicle: Klucel (hydroxypropylcellulose) (HPC) 99 % of control | dose: 6.25 mg/kg/injection, schedule: Q01DX009 (oral), vehicle: Klucel (hydroxypropylcellulose) (HPC) 99 % of control | dose: 12.5 mg/kg/injection, schedule: Q01DX009 (ip), vehicle: Klucel (hydroxypropylcellulose) (HPC) 119 % of control | dose: 12.5 mg/kg/injection, schedule: Q01DX009 (oral), vehicle: Klucel (hydroxypropylcellulose) (HPC) 93 % of control and 98 % of control | dose: 25.0 mg/kg/injection, schedule: Q01DX009 (oral), vehicle: Klucel (hydroxypropylcellulose) (HPC) 106 % of control and 91 % of control | dose: 50.0 mg/kg/injection, schedule: Q01DX009 (oral), vehicle: Klucel (hydroxypropylcellulose) (HPC) 93 % of control | dose: 100.0 mg/kg/injection, schedule: Q01DX009 (oral), vehicle: Klucel (hydroxypropylcellulose) (HPC) 93 % of control and 98 % of control | dose: 200.0 mg/kg/injection, schedule: Q01DX009 (oral), vehicle: Klucel (hydroxypropylcellulose) (HPC) 88 % of control

From PubChem BioAssay AID330 (DTP/NCI, 2004)
